Laboratory results as given in patent US20190085024A1, “Alpha-Ketoamide Inhibitors Of Cysteine Proteases” (Phelix Therapeutics, priority 2017, published 2019).
*1 amine or outer side, *2 acyl side, *3 side chain or, on linkers, in order; H or OH if unused. Where a SMILES comes first, the peptide text is derived from it. [ ]: non-standard residue; d: D form. The star is where a group is joined. ξ: configuration not given here. ξβ3hPhe(2-oxo) = O=C(C(=O)[*:2])C(Cc1ccccc1)N[*:1]; ξ3Amino2oxobutanoyl = CC(N[*:1])C(=O)C(=O)[*:2]; 2Nal = N[CH](Cc1ccc2ccccc2c1)C(=O)O; Cbz = O=C(OCc1ccccc1)*

Experiments:
Cathepsin B = Cathepsin B (Homo sapiens, UniProt P07858); assay: Cathepsin B enzyme assay; conditions: Cat B (μM), Ki by Morrison equation; pH 6.0, substrate Z-Phe-Arg-Amc
Calpain = Calpain enzyme assay; assay type: biochemical; conditions: Ki by Morrison equation; pH 7.5, 5 mM CaCl2
Cathepsin L = Cathepsin L (Homo sapiens, UniProt P07711); assay: Cathepsin L enzyme assay; assay type: biochemical; conditions: Ki by Morrison equation; pH 5.5, substrate Z-Phe-Arg-Amc; read-out: Cat L
Text: Two wells contained DMSO only for controls.
Velocity was converted to μM/sec.

MERS WT = assay: microbe, parasite or virus in culture; assay type: cell-based; conditions: Middle East respiratory syndrome-related coronavirus, read-out: MERS WT (μM)

Cathepsin L, sequence (P07711 114-333, species assumed): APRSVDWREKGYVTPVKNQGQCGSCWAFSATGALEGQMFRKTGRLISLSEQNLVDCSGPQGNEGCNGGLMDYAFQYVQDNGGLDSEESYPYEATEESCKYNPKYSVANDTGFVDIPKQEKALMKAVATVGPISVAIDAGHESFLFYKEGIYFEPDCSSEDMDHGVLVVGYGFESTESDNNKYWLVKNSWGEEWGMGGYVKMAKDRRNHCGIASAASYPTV

Compound: CCC(C)C(NC(=O)C(=O)C(C)NC(=O)C(Cc1ccccc1)NC(=O)Cc1ccccc1)C(=O)NC(C)(C)C(=O)O (centres unmarked) [PHELIX149, 12-benzyl-5-(sec-butyl)-2,2,9-trimethyl-4,7,8,11,14-pentaoxo-15-phenyl-3,6,10,13-tetraazapentadecanoic acid]
- Ki (Cathepsin B): 0.0318 µM
- Ki (Calpain): > 100000 nM
- Ki (Cathepsin L): 816 nM

Compound: CCC(C)C(NC(=O)C(=O)C(Cc1ccccc1)NC(=O)C(Cc1ccccc1)NC(=O)Cc1ccccc1)C(=O)NC(C)(C)C(=O)O (centres unmarked) [PHELIX150, 9,12-dibenzyl-5-(sec-butyl)-2,2-dimethyl-4,7,8,11,14-pentaoxo-15-phenyl-3,6,10,13-tetraazapentadecanoic acid]
- Ki (Cathepsin B): 0.0303 µM
- Ki (Calpain): 5110 nM
- Ki (Cathepsin L): 39.2 nM

Compound: CC[C@H](C)[C@H](NC(=O)C(=O)C(Cc1ccccc1)NC(=O)C(Cc1ccccc1)NC(=O)Cc1ccccc1)C(=O)N1CCC[C@H]1C(=O)O (some centres unmarked) [PHELIX156, (2-oxo-4-phenyl-3-(3-phenyl-2-(2-phenylacetamido)propanamido)butanoyl)isoleucylproline]
- Ki (Cathepsin B): 0.0102 µM
- Ki (Calpain): 9850 nM
- Ki (Cathepsin L): 1.58 nM

Compound: CC(NC(=O)C(Cc1ccccc1)NC(=O)Cc1ccccc1)C(=O)C(=O)NC(Cc1ccccc1)C(=O)NC(C)(C)C(=O)O (centres unmarked) [PHELIX157, 5,12-dibenzyl-2,2,9-trimethyl-4,7,8,11,14-pentaoxo-15-phenyl-3,6,10,13-tetraazapentadecanoic acid]
- Ki (Cathepsin B): 0.0028 µM
- Ki (Calpain): 34600 nM
- Ki (Cathepsin L): 56.2 nM

Compound: CCC(C)C(NC(=O)C(=O)C(C)NC(=O)C(Cc1ccccc1)NC(=O)Cc1ccc(-c2ccccc2)cc1)C(=O)NC(C)(C)C(=O)O (centres unmarked) [PHELIX159, 15-([1,1′-biphenyl]-4-yl)-12-benzyl-5-(sec-butyl)-2,2,9-trimethyl-4,7,8,11,14-pentaoxo-3,6,10,13-tetraazapentadecanoic acid]
- Ki (Cathepsin B): 0.0414 µM
- Ki (Calpain): 16600 nM
- Ki (Cathepsin L): 2450 nM

Compound: CC[C@H](C)[C@H](NC(=O)C(=O)C(C)(C)NC(=O)[C@H](Cc1ccccc1)NC(=O)Cc1ccccc1)C(=O)NC(C)(C)C(=O)O [PHELIX160, 12-benzyl-5-(sec-butyl)-2,2,9,9-tetramethyl-4,7,8,11,14-pentaoxo-15-phenyl-3,6,10,13-tetraazapentadecanoic acid]
- Ki (Cathepsin B): 111 µM
- Ki (Calpain): 51000 nM
- Ki (Cathepsin L): 63400 nM

Compound: CCC(C)C(NC(=O)C(=O)C(C)NC(=O)CCNC(=O)OCc1ccccc1)C(=O)NC(C)(C)C(=O)O (centres unmarked) [PHELIX164, 13-(sec-butyl)-9,16,16-trimethyl-3,7,10,11,14-pentaoxo-1-phenyl-2-oxa-4,8,12,15-tetraazaheptadecan-17-oic acid]
- Ki (Cathepsin B): 34.6 µM
- Ki (Calpain): > 100000 nM
- Ki (Cathepsin L): > 1000 nM

Compound: CC(NC(=O)C(Cc1ccccc1)NC(=O)Cc1ccccc1)C(=O)C(=O)NC(CC1CC1)C(=O)NC(C)(C)C(=O)O (centres unmarked) [PHELIX166, 12-benzyl-5-(cyclopropylmethyl)-2,2,9-trimethyl-4,7,8,11,14-pentaoxo-15-phenyl-3,6,10,13-tetraazapentadecanoic acid]
- Ki (Cathepsin B): 0.0081 µM
- Ki (Calpain): > 100000 nM
- Ki (Cathepsin L): 586 nM

Compound: CCC(C)C(NC(=O)C(=O)C(C)NC(=O)C(Cc1cccc(C(F)(F)F)c1)NC(=O)Cc1ccccc1)C(=O)NC(C)(C)C(=O)O (centres unmarked) [PHELIX170, 5-(sec-butyl)-2,2,9-trimethyl-4,7,8,11,14-pentaoxo-15-phenyl-12-(3-(trifluoro-methyl)benzyl)-3,6,10,13-tetraazapentadecanoic acid]
- Ki (Cathepsin B): 0.022 µM
- Ki (Calpain): 59700 nM
- Ki (Cathepsin L): 1190 nM

Compound: CCC(C)C(NC(=O)C(=O)C(C)NC(=O)C(CC(C)C)NC(=O)Cc1ccccc1)C(=O)NC(C)(C)C(=O)O (centres unmarked) [PHELIX171, 5-(sec-butyl)-12-isobutyl-2,2,9-trimethyl-4,7,8,11,14-pentaoxo-15-phenyl-3,6,10,13-tetraazapentadecanoic acid]
- Ki (Cathepsin B): 0.56 µM
- Ki (Calpain): 3900 nM
- Ki (Cathepsin L): 632 nM

Compound: CCC(C)C(NC(=O)C(=O)C(C)NC(=O)[C@H](Cc1cncs1)NC(=O)Cc1ccccc1)C(=O)NC(C)(C)C(=O)O (stereo partly drawn) [PHELIX173, (12S)-5-(sec-butyl)-2,2,9-trimethyl-4,7,8,11,14-pentaoxo-15-phenyl-12-(thiazol-5-ylmethyl)-3,6,10,13-tetraazapentadecanoic acid]
- Ki (Cathepsin B): 0.72 µM
- Ki (Calpain): > 100000 nM
- Ki (Cathepsin L): 3330 nM

Compound: CCC(C)C(NC(=O)C(=O)C(C)NC(=O)C(Cc1cccc(C#N)c1)NC(=O)Cc1ccccc1)C(=O)NC(C)(C)C(=O)O (centres unmarked) [PHELIX176, 5-(sec-butyl)-12-(3-cyanobenzyl)-2,2,9-trimethyl-4,7,8,11,14-pentaoxo-15-phenyl-3,6,10,13-tetraazapentadecanoic acid]
- Ki (Cathepsin B): 0.0378 µM
- Ki (Cathepsin L): 2690 nM

Compound: CC(NC(=O)C(Cc1ccccc1)NC(=O)Cc1ccccc1)C(=O)C(=O)NC(CC1CCCCC1)C(=O)NC(C)(C)C(=O)O (centres unmarked) [PHELIX177, 12-benzyl-5-(cyclohexylmethyl)-2,2,9-trimethyl-4,7,8,11,14-pentaoxo-15-phenyl-3,6,10,13-tetraazapentadecanoic acid]
- Ki (Cathepsin B): 0.0012 µM
- Ki (Cathepsin L): 92.2 nM

Compound: CC(NC(=O)C(Cc1ccccc1)NC(=O)Cc1ccccc1)C(=O)C(=O)N[C@@H](Cc1ccccc1)C(=O)N1CCC[C@H]1C(=O)O (some centres unmarked) [PHELIX178, (2-oxo-3-(3-phenyl-2-(2-phenylacetamido)propanamido)butanoyl)phenylalanyl proline]
- Ki (Cathepsin B): 0.0067 µM
- Ki (Cathepsin L): 38.5 nM

Compound: CCC(C)C(NC(=O)C(=O)C(C)NC(=O)C(Cc1ccccc1)NC(=O)Cc1ccccc1)C(=O)NC(C)(C)C(=O)OC (centres unmarked) [PHELIX179, methyl 12-benzyl-5-(sec-butyl)-2,2,9-trimethyl-4,7,8,11,14-pentaoxo-15-phenyl-3,6,10,13-tetraazapentadecanoate]
- Ki (Cathepsin B): 17.8 µM
- Ki (Cathepsin L): 881 nM

Compound: CC(NC(=O)C(Cc1ccccc1)NC(=O)Cc1ccccc1)C(=O)C(=O)NC(Cc1ccc(C(C)(C)C)cc1)C(=O)NC(C)(C)C(=O)O [PHELIX180, (5S,12)S-12-benzyl-5-(4-(tert-butyl)benzyl)-2,2,9-trimethyl-4,7,8,11,14-pentaoxo-15-phenyl-3,6,10,13-tetraazapentadecanoic acid]
- Ki (Cathepsin B): 0.197 µM
- Ki (Cathepsin L): 127 nM

Compound: CCCC(NC(=O)C(=O)C(C)NC(=O)C(Cc1ccccc1)NC(=O)Cc1ccccc1)C(=O)NC(C)(C)C(N)=O (centres unmarked) [PHELIX243, N-(1-amino-2-methyl-1-oxopropan-2-yl)-2-(2-oxo-3-(3-phenyl-2-(2-phenylacetamido)propanamido)butanamido)pentanamide]
- Ki (Cathepsin B): > 10 µM
- Ki (Calpain): > 10000 nM
- Ki (Cathepsin L): 5580 nM

Compound: CC(C)C[C@H](NC(=O)C(c1ccccc1)c1ccccc1)C(=O)NC(C)C(=O)C(=O)NCC(=O)N[C@@H](Cc1ccc2ccccc2c1)C(N)=O (some centres unmarked) [PHELIX251, N-(4-((2-((1-amino-3-(naphthalen-2-yl)-1-oxopropan-2-yl)amino)-2-oxoethyl)amino)-3,4-dioxobutan-2-yl)-2-(2,2-diphenylacetamido)-4-methylpentanamide]
- Ki (Cathepsin B): 0.106 µM
- Ki (Calpain): 25 nM
- Ki (Cathepsin L): 1.4 nM
- IC50 (MERS WT): > 30 µM

Compound: CC(C)CC(NC(=O)OCc1ccccc1)C(=O)NC(Cc1ccccc1)C(=O)C(=O)NC(C)C(=O)NC(CCC(=O)O)C(=O)NC(CCCNC(=N)N)C(N)=O (stereo not drawn) [PHELIX252, 15-((1-amino-5-guanidino-1-oxopentan-2-yl)carbamoyl)-8-benzyl-5-isobutyl-12-methyl-3,6,9,10,13-pentaoxo-1-phenyl-2-oxa-4,7,11,14-tetraazaoctadecan-18-oic acid] (Cbz-L[ξβ3hPhe(2-oxo)]AER-NH2; configuration not given here)
- Ki (Cathepsin B): > 10 µM
- Ki (Calpain): 17 nM
- Ki (Cathepsin L): 5.03 nM
- IC50 (MERS WT): > 30 µM

Compound: CC(C)CC(NC(=O)Cc1ccc(-c2ccccc2)cc1)C(=O)NC(C)C(=O)C(=O)NCC(=O)NC(Cc1ccc2ccccc2c1)C(N)=O (centres unmarked) [PHELIX253, 2-(2-([1,1′-biphenyl]-4-yl)acetamido)-N-(4-((2-((1-amino-3-(naphthalen-2-yl)-1-oxopropan-2-yl)amino)-2-oxoethyl)amino)-3,4-dioxobutan-2-yl)-4-methylpentanamide]
- Ki (Cathepsin B): 1.17 µM
- Ki (Calpain): 21.4 nM
- Ki (Cathepsin L): 21.5 nM
- IC50 (MERS WT): > 30 µM

Compound: CC(C)CC(NC(=O)OCc1ccccc1)C(=O)NC(Cc1ccccc1)C(=O)C(=O)NCC(=O)NC(Cc1ccc2ccccc2c1)C(N)=O (centres unmarked) [PHELIX256, benzyl (1-((4-((2-((1-amino-3-(naphthalen-2-yl)-1-oxopropan-2-yl)amino)-2-oxoethyl)amino)-3,4-dioxo-1-phenylbutan-2-yl)amino)-4-methyl-1-oxopentan-2-yl)carbamate]
- Ki (Cathepsin B): 0.24 µM
- Ki (Calpain): 12.2 nM
- Ki (Cathepsin L): 1.47 nM
- IC50 (MERS WT): 4.97 µM

Compound: CC(C)CC(NC(=O)C(Cc1ccccc1)NC(=O)OCc1ccccc1)C(=O)NC(C)C(=O)C(=O)NCC(=O)NC(Cc1ccc2ccccc2c1)C(N)=O (centres unmarked) [PHELIX258, benzyl (1-amino-12-isobutyl-9-methyl-2-(naphthalen-2-ylmethyl)-1,4,7,8,11,14-hexaoxo-16-phenyl-3,6,10,13-tetraazahexadecan-15-yl)carbamate] (Cbz-FL[ξ3Amino2oxobutanoyl]G[2Nal]-NH2; configuration not given here)
- Ki (Cathepsin B): 0.42 µM
- Ki (Calpain): 1.9 nM
- Ki (Cathepsin L): 6.14 nM

Compound: CC(NC(=O)C(Cc1ccccc1)NC(=O)Cc1ccccc1)C(=O)C(=O)NC(Cc1ccc(F)cc1)C(=O)NC(Cc1ccc(-c2ccccc2)cc1)C(N)=O (centres unmarked) [PHELIX262]
- Ki (Cathepsin B): 0.435 µM
- Ki (Calpain): > 10000 nM
- Ki (Cathepsin L): 0.04 nM

Compound: CCC(C)C(NC(=O)C(CC(C)C)NC(=O)OCc1ccccc1)C(=O)C(=O)NC(CCCNC(N)=O)C(=O)NC(Cc1ccc2ccccc2c1)C(N)=O (centres unmarked) [PHELIX315, benzyl (1-((1-((1-((1-amino-3-(naphthalen-2-yl)-1-oxopropan-2-yl)amino)-1-oxo-5-ureidopentan-2-yl)amino)-4-methyl-1,2-dioxohexan-3-yl)amino)-4-methyl-1-oxopentan-2-yl)carbamate]
- Ki (Cathepsin B): > 10 µM
- Ki (Calpain): 1.48 nM
- Ki (Cathepsin L): 0.47 nM
